# Experimental data from paper PMC5321639, “Design and pharmacodynamics of recombinant NZ2114 histidine mutants with improved activity against methicillin-resistant Staphylococcus aureus” (AMB Express, 2017).
# Several values for one entry are separate records, joined by “and”; a condition that tells them apart may be missing. Equal entries are not always repeated. Where two headings read alike, the source gives them in different places. Marks after values point to notes of the source that are not given here. Where a SMILES comes first, the peptide text is derived from it. Bridges are numbered along the chain shown (N, C = ends).
# What was measured:
# [1] = test system: S. aureus ATCC43300 (MRSA); experiment: Time-kill curve assay; format: cell-based, Staphylococcus aureus; details: 1× MIC
# Method: Bacterial culture (S. aureus ATCC43300) was diluted to 1 × 10^5 CFU/ml and H1, H2, and H3 were added. […] The mixture was cultivated at 250 rpm, 37 °C. The 100-µl samples were taken from each flask at 0, 2, 4, 6, 8, 12 and 24 h of incubation, and serial dilutions of samples were plated to count visible colonies. Vancomycin was tested in the same way as a positive control and the culture without antimicrobial agent as a negative control (Xiong et al. [2011]). All experiments were performed in triplicate.
# S. aureus ATCC43300 [2] = experiment: microbe, parasite or virus in culture; format: cell-based, Staphylococcus aureus; details: for MICc (MIC of the most effective combination): checkerboard; for FIC: MICc/MICa
# Method: The MIC values of four antibiotics (vancomycin, ampicillin, rifampicin and ciprofloxacin) to S. aureus ATCC43300 were tested as the MIC assay described above. The peptide solutions and antibiotics were diluted twofold with the final concentrations ranging from 1/16 to 8× MIC, and added into 96-well plates in a checkerboard fashion (White et al. [1996]). The results of combination were evaluated by calculating the fractional inhibitory concentration index (FICI) of each combination. FIC of H1, H2, H3=MIC of H1, H2, H3, respectively, in combination with antibiotic/MIC of H1, H2, H3 alone; FIC of antibiotics=MIC of antibiotic in combination with peptide/MIC of antibiotic alone; FICI = FIC of H1, H2, H3+ antibiotic, respectively. The result of interaction between two antimicrobial drugs was determined according to: FICI ≤ 0.5 refers to synergy, 0.5 < FICI ≤ 1 refers to additivity, 1 < FICI ≤ 4 refers to indifference, and FICI > 4 is defined as antagonism (Tsuji and Rybak [2006]).
# S. aureus ATCC43300 [3] = experiment: Effect of temperature on activity (MIC); format: cell-based, Staphylococcus aureus; details: then MIC assay
# Method: (§1) The peptide solutions were diluted twofold with the range of final concentrations were 0.015–32 µg/ml (0.003–7.273 µM) for purified H1, H2, H3, H6, and H8. The test strains were grown in MHB medium at 37 °C to an OD600 of 0.4 and diluted to 1 × 10^5 CFU/ml. The 10 µl peptide and 90 µl cell suspension were added into each well. All assays were performed in triplicate. The antimicrobial activity of NZ2114 and vancomycin were tested as positive controls. The plates were incubated at 37 °C for 18–24 h. MIC was defined as the lowest peptide concentration of ones at which there was no visible growth (Tian et al. [2009]).
# (§2) The effect of pH, temperature, NaCl concentration and proteinase on the activity of peptides was evaluated. Peptides were diluted twofold, then adjusted to a pH range from 2.0 to 10.0 and incubated at 37 °C for 4 h. The thermal stability of purified peptides was determined after 1-h incubation of peptides at 4, 20, 40, 60, 80 and 100 °C in deionized water, respectively. Aliquots of peptides were incubated in various proteinases solutions [pepsin (pH 2.0), trypsin (pH 8.0), proteinase K (pH 7.0)] at a ratio of 1:10, w/w (proteinase: peptide) at 37 °C for 3 h. For the ion stability, peptides were incubated in 50, 100, 200, 300, 400, 500 mM sodium chloride solutions, respectively. Other methods and conditions were prepared as the MIC assay described above (Li et al. [2015]; Qu et al. [2016]).
# S. aureus ATCC43300 [4] = experiment: Effect of proteinases on activity (MIC); format: cell-based, Staphylococcus aureus; details: 1:10 w/w proteinase:peptide, 37 °C for 3 h, then MIC assay
# Method: as §1, §2
# mice red blood cells = experiment: Hemolytic assay; format: cell-based; details: 0.23 to 7.27 μM (1–32 μg/ml), 37 °C 1 h
# Method: The mice blood cells were washed three times in stroke-physiological saline solution (0.9% NaCl) and centrifuged at 4 °C, 2000 rpm for 5 min. A 50-μl cell was diluted to 8% (v/v), added into 96-well plates, and mixed with 50-μl peptide to the final concentrations ranging from […]. The plates were incubated at 37 °C for 1 h, and centrifuged at 4 °C, 5000 rpm for 5 min. The absorbance of supernatants was measured at 540 nm, and 0 and 100% hemolysis was measured by 0.9% NaCl and 0.1% Triton X-100, respectively. The hemolysis percentages were calculated by the following equation: [(Abs540 nm in H1, H2, H3 solution − Abs540 nm in 0.9% NaCl)/(Abs540 nm in 0.1% Triton X-100 − Abs540 nm in 0.9% NaCl)] ×100% (Jiao et al. [2015]).
# S. aureus ATCC43300 [5] = experiment: Effect of pH on activity (MIC); format: cell-based, Staphylococcus aureus; details: then MIC assay
# Method: as §1, §2
# S. aureus ATCC43300 [6] = experiment: Effect of NaCl concentration on activity (MIC); format: cell-based, Staphylococcus aureus
# Method: as §1, §2
# S. aureus ATCC43300 [7] = experiment: Postantibiotic effect (PAE); format: cell-based, Staphylococcus aureus; details: 2 h exposure at 37 °C, 1 × 10^8 CFU/ml, drug removed by 1:10^3 dilution, mean ± SD, n = 3
# Method: After 2 h, the drug was removed by diluting 1:10^3 into the MHB and incubated at 37 °C, 250 rpm. The sample was taken to plate counting every 1 h until the bacterial cultures become turbid. The PAE was calculated by the following formula: PAE = T − C, where T is the time needed for the count of CFU in the test culture to increase 1 log10 (10-fold) above the 0 h and C is the time needed for the count of CFU in the untreated control culture to increase 1 log10 above the 0 h (Giguère et al. [2012]).
# S. suis CVCC606 = details: data from previous results; ref Jiao et al. [2015]; cited from earlier work
# Source text: (§3) Table 2 MIC assays of H1, H2, H3, H6, H8, NZ2114, and vancomycin against G^+ and G^− pathogens | column: MIC (μM) / Van
# S. suis CVCC3309 = details: data from previous results; ref Jiao et al. [2015]; cited from earlier work
# Source text: as §3
# S. suis CVCC3928 = details: data from previous results; ref Jiao et al. [2015]; cited from earlier work
# Source text: as §3
# [8] = test system: S. aureus ATCC43300 (MRSA); experiment: MIC assay; format: cell-based; details: Staphylococcus aureus; MHB, 1 × 10^5 CFU/ml, 37 °C, 18–24 h, no visible growth, triplicate
# Method: as §1
# S. aureus ATCC6538 = experiment: MIC assay; format: cell-based, Staphylococcus aureus; details: Staphylococcus aureus, ATCC6538; MHB, 1 × 10^5 CFU/ml, 37 °C, 18–24 h, no visible growth, triplicate
# Method: as §1
# S. aureus ATCC25923 = experiment: MIC assay; format: cell-based, Staphylococcus aureus; details: Staphylococcus aureus, ATCC25923; MHB, 1 × 10^5 CFU/ml, 37 °C, 18–24 h, no visible growth, triplicate
# Method: as §1
# rabbit and human RBCs = details: ref Yang et al. [2011], Zhang et al. [2014]; cited from earlier work
# Source text: Although the values were higher than NZ2114 due to the high charge and hydrophilicity, they were still very low in the range of MICs. […] Owing to contribution from the three pairs of disulfide bond into th ...
compound,measurement,setting,value
"CC[C@H](C)[C@@H]1NC(=O)[C@H](CO)NC(=O)[C@H](CCCCN)NC(=O)[C@@H]2CSSC[C@@H](C(=O)N[C@@H](Cc3ccc(O)cc3)C(=O)O)NC(=O)[C@H](CCCCN)NC(=O)[C@@H]3CSSC[C@H](NC(=O)[C@H](CCCNC(=N)N)NC(=O)[C@H](CC(C)C)NC(=O)[C@H](CC(=O)O)NC(=O)[C@H](CC(=O)O)NC(=O)[C@H](CCC(=O)O)NC(=O)[C@H](CC(N)=O)NC(=O)[C@H](Cc4c[nH]c5ccccc45)NC(=O)[C@@H]4CCCN4C(=O)CNC(=O)[C@H](CC(N)=O)NC(=O)[C@@H](NC(=O)CNC(=O)[C@H](Cc4ccccc4)NC(=O)CN)CSSC[C@H](NC(=O)[C@H](Cc4ccc(O)cc4)NC(=O)CNC(=O)CNC(=O)[C@H](CCCCN)NC(=O)[C@H](Cc4ccc(O)cc4)NC(=O)CNC(=O)[C@H](CCCCN)NC1=O)C(=O)N[C@@H](C)C(=O)N[C@@H](CCCCN)C(=O)NCC(=O)NCC(=O)N[C@@H](Cc1ccccc1)C(=O)N[C@@H](C(C)C)C(=O)N3)C(=O)N[C@@H](Cc1c[nH]cn1)C(=O)N[C@@H](CC(N)=O)C(=O)N[C@@H](CCCCN)C(=O)N2 [H3] (H-GFGCNGPWNEDDLRCHNKCKSIKGYKGGYCAKGGFVCKCY-OH; disulfide 4-30, 15-37, 19-39 (inferred); N-terminus and C-terminus assumed)",incubation time after which regrowth occurred,[1],8 h
same,MICc (MIC of the most effective combination),S. aureus ATCC43300 [2]; in combination with ampicillin,0.056 µM
same,MICc (MIC of the most effective combination),S. aureus ATCC43300 [2]; in combination with ciprofloxacin,0.056 µM
same,MICc (MIC of the most effective combination),S. aureus ATCC43300 [2]; in combination with rifampicin,0.056 µM
same,MICc (MIC of the most effective combination),S. aureus ATCC43300 [2]; in combination with vancomycin,0.028 µM
same,MIC,"S. aureus ATCC43300 [2]; drug alone, read-out: MICa (MIC of drug alone)",0.056 µM
same,MIC after incubation at 4 °C,S. aureus ATCC43300 [3]; 1 h at 4 °C in deionized water,0.057 µM
same,MIC after incubation at 20 °C,S. aureus ATCC43300 [3]; 1 h at 20 °C in deionized water,0.057 µM
same,MIC after incubation at 40 °C,S. aureus ATCC43300 [3]; 1 h at 40 °C in deionized water,0.057 µM
same,MIC after incubation at 60 °C,S. aureus ATCC43300 [3]; 1 h at 60 °C in deionized water,0.057 µM
same,MIC after incubation at 80 °C,S. aureus ATCC43300 [3]; 1 h at 80 °C in deionized water,0.057 µM
same,MIC after incubation at 100 °C,S. aureus ATCC43300 [3]; 1 h at 100 °C in deionized water,0.114 µM
same,MIC after Pepsin,S. aureus ATCC43300 [4]; pepsin (pH 2.0),0.057 µM
same,MIC after Proteinase K,S. aureus ATCC43300 [4]; proteinase K (pH 7.0),0.114 µM
same,MIC after Trypsin,S. aureus ATCC43300 [4]; trypsin (pH 8.0),0.057 µM
same,hemolytic activity,mice red blood cells,little or no hemolytic activity
same,MIC after incubation at pH2,"S. aureus ATCC43300 [5]; pH 2, 37 °C for 4 h",0.057 μM
same,MIC after incubation at pH4,"S. aureus ATCC43300 [5]; pH 4, 37 °C for 4 h",0.057 μM
same,MIC after incubation at pH6,"S. aureus ATCC43300 [5]; pH 6, 37 °C for 4 h",0.114 μM
same,MIC after incubation at pH8,"S. aureus ATCC43300 [5]; pH 8, 37 °C for 4 h",0.057 μM
same,MIC after incubation at pH10,"S. aureus ATCC43300 [5]; pH 10, 37 °C for 4 h",0.057 μM
same,MIC in 50 mM NaCl,S. aureus ATCC43300 [6]; incubated in 50 mM sodium chloride solution,0.057 µM
same,MIC in 100 mM NaCl,S. aureus ATCC43300 [6]; incubated in 100 mM sodium chloride solution,0.057 µM
same,MIC in 200 mM NaCl,S. aureus ATCC43300 [6]; incubated in 200 mM sodium chloride solution,0.057 µM
same,MIC in 300 mM NaCl,S. aureus ATCC43300 [6]; incubated in 300 mM sodium chloride solution,0.057 µM
same,MIC in 400 mM NaCl,S. aureus ATCC43300 [6]; incubated in 400 mM sodium chloride solution,0.114 µM
same,PAE,S. aureus ATCC43300 [7]; 1× MIC,0.55 h and 0.55 ± 0.13 h
same,PAE,S. aureus ATCC43300 [7]; 2× MIC,1.55 ± 0.07 h
CN[C@H](CC(C)C)C(=O)N[C@H]1C(=O)N[C@@H](CC(N)=O)C(=O)N[C@H]2C(=O)N[C@H]3C(=O)N[C@H](C(=O)N[C@H](C(=O)O)c4cc(O)cc(O)c4-c4cc3ccc4O)[C@H](O)c3ccc(c(Cl)c3)Oc3cc2cc(c3O[C@@H]2O[C@H](CO)[C@@H](O)[C@H](O)[C@H]2O[C@H]2C[C@](C)(N)[C@H](O)[C@H](C)O2)Oc2ccc(cc2Cl)[C@H]1O [vancomycin],MIC,S. suis CVCC606,0.172^b μM
same,MIC,S. suis CVCC3309,0.172^b μM
same,MIC,S. suis CVCC3928,0.172^b μM
same,MIC,"S. aureus ATCC43300 [2]; Staphylococcus aureus, ATCC43300, read-out: MICa (MIC of drug alone)",0.714 µM
same,MICc (MIC of the most effective combination),S. aureus ATCC43300 [2]; in combination with H1,0.714 µM
same,MICc (MIC of the most effective combination),S. aureus ATCC43300 [2]; in combination with H2,0.714 µM
same,MICc (MIC of the most effective combination),S. aureus ATCC43300 [2]; in combination with H3,0.714 µM
same,FIC,S. aureus ATCC43300 [2]; in combination with H1,1
same,FIC,S. aureus ATCC43300 [2]; in combination with H2,1
same,FIC,S. aureus ATCC43300 [2]; in combination with H3,1
same,MIC,[8],0.714 µM
same,MIC,S. aureus ATCC6538,1.43 µM
same,MIC,S. aureus ATCC25923,0.172 µM
same,PAE,S. aureus ATCC43300 [7]; 2× MIC,1.72 ± 0.11 h
Plectasin,hemolysis,rabbit and human RBCs,no hemolysis
